Laboratory results published in patent US8309356B2, “Pseudocomplementary oligonucleotides for targeted gene therapy” (Yale University, priority 2009, dated 2012).

Legend:
supF reporter gene = experiment: Induced recombination / gene correction of supF reporter gene in SV40-based shuttle vector transfected into COS cells, scored in indicator bacteria; type: cell-based, monkey; conditions: plasmid co-mixed with binding molecule and supF1-donor DNA, two days
Description: In this assay, each targeting oligomer was designed, including the pair of pcPNAs, the TFO (AG30) and the bis-PNA (bis-PNA5), to bind to a selected site in the supF reporter gene contained in an SV40-based shuttle vector. In this vector construct, the supF gene has an inactivating single base pair mutation which can be corrected by recombination with a short single stranded oligonucleotide donor. The pcPNAs were designed to bind to a mixed sequence site 62 by away from the mutation, whereas the TFO and the bis-PNA were targeted to a G:C by rich polypurine site 24 by away from the mutation. The plasmid vector DNA was co-mixed with selected molecules, and the samples were transfected into monkey COS cells. Two days were allowed for repair/recombination/replication, and the episomal vector DNA was harvested for genetic analysis of the supF gene in indicator bacteria, as previously described (by Chan, et al., J. Biol. Chem., 274:11541-11548 (1999)). As expected, and consistent with other published work, the TFO (AG30) and the bis-PNAS induced gene correction in the supF gene at frequencies of 0.14% and 0.21%, respectively (FIG. 4). […] A pair of control pcPNAs (pcPNA3 and pcPNA4) with 5 mismatches each to the supF target site were ineffective, showing the sequence specificity of the process.

[1] = system: chromosomal GFP/IVS2-1^G→A gene; experiment: Gene correction of chromosomal GFP/IVS2-1G→A fusion gene in CHO reporter cells, GFP-positive cells quantified by FACS; type: cell-based; conditions: with β-globin/GFP donor DNA (or donor alone)
Procedure: The HinDIII-NotI fragments of these plasmids, containing the GFP sequence interrupted by IVS2-1 or IVS2 wt construct, were subcloned into the multiple cloning site of pcDNA5/FRT (Invitrogen, Carlsbad, Calif.), and the resulting vectors were stably transfected into CHO-Flp host cell lines using the Flp-In System according to manufacturer's instructions (Invitrogen, Carlsbad Calif.). […] The resulting CHO-GFP/IVS2-1^G→A cells and control CHO-GFP/IVS2-1^WT cells were grown in Ham's F12 media supplemented with 10% FBS and 2 mM L-glutamine.
1×10^6 cells in 100 μl of media were mixed with selected pcPNAs (6 μM) and GFP-DNA (12 μM) oligonucleotides and electroporated in 0.4 cm cuvettes using a Bio-Rad Gene Pulser (280V, […], Hercules, Calif.). Cells were replated in 60 mm dishes following electroporation and allowed to expand to approximately 90% confluency (2-3 days). […] Two days later as indicated, cells were then visualized via fluorescence microscopy or analyzed by FACS.
Cells were visualized using a Zeiss Axiovert 200 (Thornwood, N.Y.) fluorescent microscope at 100× and 200× magnification. […] Cells were analyzed using a Becton Dickinson FACS-Calibur flow cytometer (Franklin Lakes, N.J.). […] Collected data were then analyzed using the FlowJo software (Tree Star Inc., Ashland, Oreg.). […]

Row | Substance | Frequency of gene correction in the supF gene (recombination frequency) (supF reporter gene) | Frequency of gene correction ([1]; S-phase synchronized cells, SAHA, single treatment) | Frequency of gene correction ([1]; asynchronous CHO-GFP/IVS2-1G→A cells, single electroporation, no additive)
1 | AGGAAGGGGGGGGTGGTGGGGGAGGGGGAG (chemistry not given here) [AG30] | 0.14% | – | –
2 | GTTCAGCGTGTCCGGCGAGGGCGAGGTGAGTCTATGGGACCCTTGATGTTT (listed as DNA, chemistry not given here) [GFP-donor DNA] | – | 0.29% | 0.005%
3 | JJJJJTTJJT-O-O-O-TCCTTCCCCC-(Lys)3 (JJJJJTTJJT-O-O-O-TCCTTCCCCC-(Lys)_{3}; as printed in the source, key not given here) [Bis-PNA5] | 0.21% | – | –
